pEC50: −log10 of the molar value.
System: HBsAg
Experiment: In vitro combination study, HBsAg CLIA, MacSynergy II
Assay type: cell-based, hepatitis B virus
Set-up: MacSynergy volume: unit not given here
Conditions: for Additive % Inhibition versus negative control / MacSynergy volume: LNP-2 0 μM; for MacSynergy volume: 99.99% confidence interval
Method: In vitro combination studies were conducted using the method of Prichard & Shipman, 1990, Antiviral Res. 14(4-5):181-205, and Prichard, et al., MacSynergy II). The HepG2.2.15 cell culture system is a cell line derived from human hepatoblastoma HepG2 cells, that have been stably transfected with the adw2-subtype HBV genome (Sells, et al., 1987, Proc. Natl. Acad. Sci. U.S.A 84:1005-1009). HepG2.2.15 cells secrete Dane-like viral particles, produce HBV DNA, and produce the viral proteins, HBeAg and HBsAg.
Non-limiting examples of HBV RNA destabilizers are Compound A and Compound B. The EC50 values of these agents are shown in Table 12. Although inhibition of HBV DNA, RNA and proteins can be determined in the presence of the compounds of the invention and LNPs (both referred to herein as “agents”), the assay that can quantitatively measure the level of HBsAg was used in this study. To test the agent combinations, HepG2.2.15 (30,000 cells/well) were plated in 96 well tissue-culture treated microtiter plates in DMEM+L-Glutamine medium supplemented with 1% penicillin-streptomycin, 20 μg/mL geneticin (G418), 10% fetal bovine serum, and incubated in a humidified incubator at 37° C. and 5% CO2 overnight. The next day, the cells were replenished with fresh medium followed by the addition of compound of the invention (dissolved in 100% DMSO), and LNP (dissolved in 100% RPMI medium). The agents were added to cells in a checkerboard fashion. The microtiter cell plates were incubated for a total duration of 6 days in a humidified incubator at 37° C. and 5% CO2. On the 3rd day of incubation, the cells were replenished with fresh medium and agents. The serial dilutions spanned concentration ranges respective to the EC50 value of each agent, with the final DMSO concentration of the assay being 0.5%. In addition to combination testing of the agents in a checkerboard fashion, the compound and LNP were also tested alone.
Untreated positive control samples (0.5% DMSO in media) were included on each plate in multiple wells. Following a 6 day-incubation, media was removed from treated cells for use in an HBsAg chemiluminescence immunoassay (CLIA) (Autobio Diagnostics, Cat No. CL0310-2). An HBsAg standard curve was generated to verify that the levels of HBsAg quantification were within the detection limits of the assay. The remaining inhibitor-treated cells were assessed for cytotoxicity by determination of the intracellular adenosine triphosphate (ATP) using a Cell-Titer Glo reagent (Promega) as per manufacturers instructions and by microscopic analysis of the cells throughout the duration of inhibitor treatment. Cell viability was calculated as a percentage of the untreated positive control wells.
The plates were read using an EnVision multimode plate reader (PerkinElmer Model 2104). […] The RLU data from the single agent treated cells were analyzed using XL-Fit module in Microsoft Excel to determine EC50 values using a 4-parameter curve fitting algorithm.

[1] = Compound A 0.0001 μM, LNP-1 0.0025, 0.00079, 0.00025, 7.9E−05, 2.5E−05, 0 μM
[2] = Compound A 0.000316 μM, LNP-1 0.0025, 0.00079, 0.00025, 7.9E−05, 2.5E−05, 0 μM
[3] = Compound A 0.001 μM, LNP-1 0.0025, 0.00079, 0.00025, 7.9E−05, 2.5E−05, 0 μM
[4] = Compound A 0.00316 μM, LNP-1 0.0025, 0.00079, 0.00025, 7.9E−05, 2.5E−05, 0 μM
[5] = Compound A 0.1 μM, LNP-1 0.0025, 0.00079, 0.00025, 7.9E−05, 2.5E−05, 0 μM
[6] = Compound A 1.0E−05 μM, LNP-1 0.0025, 0.00079, 0.00025, 7.9E−05, 2.5E−05, 0 μM
[7] = Compound A 1.0E−05 μM, LNP-2 0.0025, 0.00079, 0.00025, 7.9E−05, 2.5E−05, 0 μM
[8] = Compound A 1.00E−06 μM, LNP-1 0.0025, 0.00079, 0.00025, 7.9E−05, 2.5E−05, 0 μM
[9] = Compound A 1.00E−06 μM, LNP-2 0.0025, 0.00079, 0.00025, 7.9E−05, 2.5E−05, 0 μM
[10] = Compound A 3.16E−06 μM, LNP-1 0.0025, 0.00079, 0.00025, 7.9E−05, 2.5E−05, 0 μM
[11] = Compound A 3.16E−06 μM, LNP-2 0.0025, 0.00079, 0.00025, 7.9E−05, 2.5E−05, 0 μM
[12] = Compound A 3.17E−05 μM, LNP-1 0.0025, 0.00079, 0.00025, 7.9E−05, 2.5E−05, 0 μM
[13] = Compound A 3.17E−05 μM, LNP-2 0.0025, 0.00079, 0.00025, 7.9E−05, 2.5E−05, 0 μM
[14] = Compound B 0.0002 μM, LNP-1 0.0025, 0.00079, 0.00025, 7.9E−05, 2.5E−05, 0 μM
[15] = Compound B 0.0006 μM, LNP-1 0.0025, 0.00079, 0.00025, 7.9E−05, 2.5E−05, 0 μM
[16] = Compound B 0.002 μM, LNP-1 0.0025, 0.00079, 0.00025, 7.9E−05, 2.5E−05, 0 μM
[17] = Compound B 0.006 μM, LNP-1 0.0025, 0.00079, 0.00025, 7.9E−05, 2.5E−05, 0 μM
[18] = Compound B 0.02 μM, LNP-1 0.0025, 0.00079, 0.00025, 7.9E−05, 2.5E−05, 0 μM
[19] = Compound B 0.06 μM, LNP-1 0.0025, 0.00079, 0.00025, 7.9E−05, 2.5E−05, 0 μM
[20] = Compound B 0.20 μM, LNP-1 0.0025, 0.00079, 0.00025, 7.9E−05, 2.5E−05, 0 μM
[21] = Compound B 0.63 μM, LNP-1 0.0025, 0.00079, 0.00025, 7.9E−05, 2.5E−05, 0 μM
[22] = Compound B 2 μM, LNP-1 0.0025, 0.00079, 0.00025, 7.9E−05, 2.5E−05, 0 μM

Structure (SMILES): COCCCOc1cc2c(nc1OC)-c1cc(=O)c(C(=O)O)cn1[C@H](C(C)C)C2 [Compound A]
- Additive % Inhibition (HBsAg) versus negative control [1]: 47.52%
- Avg % Inhibition (HBsAg) versus negative control [1]: 47.52%
- Additive % Inhibition (HBsAg) versus negative control (Compound A 0.0001 μM, LNP-2 0.0025, 0.00079, 0.00025, 7.9E−05, 2.5E−05, 0 μM): 48.07%
- Avg % Inhibition (HBsAg) versus negative control (Compound A 0.0001 μM, rows r14-r19 = LNP-2 0.0025, 0.00079, 0.00025, 7.9E−05, 2.5E−05, 0 μM): 48.07%
- Additive % Inhibition (HBsAg) versus negative control [2]: 66.21%
- Avg % Inhibition (HBsAg) versus negative control [2]: 66.21%
- Additive % Inhibition (HBsAg) versus negative control (Compound A 0.000316 μM, LNP-2 0.0025, 0.00079, 0.00025, 7.9E−05, 2.5E−05, 0 μM): 74.6%
- Avg % Inhibition (HBsAg) versus negative control (Compound A 0.000316 μM, rows r14-r19 = LNP-2 0.0025, 0.00079, 0.00025, 7.9E−05, 2.5E−05, 0 μM): 74.6%
- Additive % Inhibition (HBsAg) versus negative control [3]: 84.38%
- Avg % Inhibition (HBsAg) versus negative control [3]: 84.38%
- Additive % Inhibition (HBsAg) versus negative control (Compound A 0.001 μM, LNP-2 0.0025, 0.00079, 0.00025, 7.9E−05, 2.5E−05, 0 μM): 87.41%
- Avg % Inhibition (HBsAg) versus negative control (Compound A 0.001 μM, rows r14-r19 = LNP-2 0.0025, 0.00079, 0.00025, 7.9E−05, 2.5E−05, 0 μM): 87.41%
- Additive % Inhibition (HBsAg) versus negative control [4]: 90.37%
- Avg % Inhibition (HBsAg) versus negative control [4]: 90.37%
- Additive % Inhibition (HBsAg) versus negative control (Compound A 0.00316 μM, LNP-2 0.0025, 0.00079, 0.00025, 7.9E−05, 2.5E−05, 0 μM): 92.04%
- Avg % Inhibition (HBsAg) versus negative control (Compound A 0.00316 μM, rows r14-r19 = LNP-2 0.0025, 0.00079, 0.00025, 7.9E−05, 2.5E−05, 0 μM): 92.04%
- Additive % Inhibition (HBsAg) versus negative control [5]: 92.38%
- Avg % Inhibition (HBsAg) versus negative control [5]: 92.38%
- Additive % Inhibition (HBsAg) versus negative control (Compound A 0.1 μM, LNP-2 0.0025, 0.00079, 0.00025, 7.9E−05, 2.5E−05, 0 μM): 93.74%
- Avg % Inhibition (HBsAg) versus negative control (Compound A 0.1 μM, rows r14-r19 = LNP-2 0.0025, 0.00079, 0.00025, 7.9E−05, 2.5E−05, 0 μM): 93.74%
- Additive % Inhibition (HBsAg) versus negative control [6]: 16.81%
- Avg % Inhibition (HBsAg) versus negative control [6]: 16.81%
- Additive % Inhibition (HBsAg) versus negative control [7]: 27.46%
- Avg % Inhibition (HBsAg) versus negative control [7]: 27.46%
- Additive % Inhibition (HBsAg) versus negative control [8]: 17.73%
- Avg % Inhibition (HBsAg) versus negative control [8]: 17.73%
- Additive % Inhibition (HBsAg) versus negative control [9]: 16%
- Avg % Inhibition (HBsAg) versus negative control [9]: 16%
- Additive % Inhibition (HBsAg) versus negative control [10]: 8.39%
- Avg % Inhibition (HBsAg) versus negative control [10]: 8.39%
- Additive % Inhibition (HBsAg) versus negative control [11]: 20.62%
- Avg % Inhibition (HBsAg) versus negative control [11]: 20.62%
- Additive % Inhibition (HBsAg) versus negative control [12]: 23.55%
- Avg % Inhibition (HBsAg) versus negative control [12]: 23.55%
- Additive % Inhibition (HBsAg) versus negative control [13]: 34.41%
- Avg % Inhibition (HBsAg) versus negative control [13]: 34.41%
- pEC50 (HepG2.2.15 cell culture, HBsAg quantitation by CLIA, read-out: 1st Inhibitor EC50): 9.00

Structure (SMILES): COCCCOc1cc2c(cc1Cl)-c1cc(=O)c(C(=O)O)cn1[C@H](C(C)C)CO2 [Compound B]
- Additive % Inhibition (HBsAg) versus negative control [14]: 19.99%
- Avg % Inhibition (HBsAg) versus negative control [14]: 19.99%
- Additive % Inhibition (HBsAg) versus negative control [15]: 22.24%
- Avg % Inhibition (HBsAg) versus negative control [15]: 22.24%
- Additive % Inhibition (HBsAg) versus negative control [16]: 28.73%
- Avg % Inhibition (HBsAg) versus negative control [16]: 28.73%
- Additive % Inhibition (HBsAg) versus negative control [17]: 39.16%
- Avg % Inhibition (HBsAg) versus negative control [17]: 39.16%
- Additive % Inhibition (HBsAg) versus negative control [18]: 61.93%
- Avg % Inhibition (HBsAg) versus negative control [18]: 61.93%
- Additive % Inhibition (HBsAg) versus negative control [19]: 80.51%
- Avg % Inhibition (HBsAg) versus negative control [19]: 80.51%
- Additive % Inhibition (HBsAg) versus negative control [20]: 89.95%
- Avg % Inhibition (HBsAg) versus negative control [20]: 89.95%
- Additive % Inhibition (HBsAg) versus negative control [21]: 92.6%
- Avg % Inhibition (HBsAg) versus negative control [21]: 92.6%
- Additive % Inhibition (HBsAg) versus negative control [22]: 93.51%
- Avg % Inhibition (HBsAg) versus negative control [22]: 93.51%
- Additive % Inhibition versus negative control (Compound B 0.0002 μM): 16.15%
- MacSynergy volume (Compound B 0.0002 μM): 0
- Additive % Inhibition versus negative control (Compound B 0.0006 μM): 18.39%
- MacSynergy volume (Compound B 0.0006 μM): 0
- Additive % Inhibition versus negative control (Compound B 0.002 μM): 21.16%
- MacSynergy volume (Compound B 0.002 μM): 0
- Additive % Inhibition versus negative control (Compound B 0.006 μM): 31.66%
- MacSynergy volume (Compound B 0.006 μM): 0
- Additive % Inhibition versus negative control (Compound B 0.02 μM): 51.93%
- MacSynergy volume (Compound B 0.02 μM): 0
- Additive % Inhibition versus negative control (Compound B 0.06 μM): 74.92%
- MacSynergy volume (Compound B 0.06 μM): 0
- Additive % Inhibition versus negative control (Compound B 0.20 μM): 86.86%
- MacSynergy volume (Compound B 0.20 μM): 0
- Additive % Inhibition versus negative control (Compound B 0.63 μM): 91.2%
- MacSynergy volume (Compound B 0.63 μM): 0
- Additive % Inhibition versus negative control (Compound B 2 μM): 92.52%
- MacSynergy volume (Compound B 2 μM): 0
